Blank lines part the entries; values can stand above or below the molecule they belong to.
How the values were obtained:
[1] = target: Maternal embryonic leucine zipper kinase (Homo sapiens) (UniProt Q14680); conditions: at 10 µM
[2] = target: T1, MAP/microtubule affinity-regulating kinase 4 (Homo sapiens) (UniProt Q96L34); assay: Selectivity interaction (ActivX KiNativ screen (kinase selectivity in THP-1 cell lysates)) EUB0000639a MARK4; format: subcellular; conditions: lysate
T1 sequence (whole entry): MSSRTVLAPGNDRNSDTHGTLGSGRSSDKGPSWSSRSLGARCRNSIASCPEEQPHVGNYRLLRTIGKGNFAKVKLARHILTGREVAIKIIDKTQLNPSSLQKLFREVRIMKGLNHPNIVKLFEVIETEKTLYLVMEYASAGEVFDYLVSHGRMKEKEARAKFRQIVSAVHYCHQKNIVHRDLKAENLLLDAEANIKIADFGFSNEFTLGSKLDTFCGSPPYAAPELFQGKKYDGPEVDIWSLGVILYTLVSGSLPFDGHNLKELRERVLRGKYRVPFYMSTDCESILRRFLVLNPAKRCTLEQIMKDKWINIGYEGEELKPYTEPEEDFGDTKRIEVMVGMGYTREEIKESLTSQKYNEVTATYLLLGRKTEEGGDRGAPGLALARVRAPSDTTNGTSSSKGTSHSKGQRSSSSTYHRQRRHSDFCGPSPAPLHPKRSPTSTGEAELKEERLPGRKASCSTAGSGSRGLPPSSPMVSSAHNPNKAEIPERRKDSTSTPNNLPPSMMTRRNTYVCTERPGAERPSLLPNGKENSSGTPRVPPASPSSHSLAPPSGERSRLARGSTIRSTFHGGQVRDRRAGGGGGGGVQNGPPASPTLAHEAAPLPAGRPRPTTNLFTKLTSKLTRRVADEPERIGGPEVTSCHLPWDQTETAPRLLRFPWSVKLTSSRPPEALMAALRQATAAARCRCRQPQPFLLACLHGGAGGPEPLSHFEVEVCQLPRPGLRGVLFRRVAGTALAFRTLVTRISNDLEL

[3] = target: Serine/threonine-protein kinase WNK2 (Homo sapiens) (UniProt Q9Y3S1); assay: Selectivity interaction (ActivX KiNativ screen (kinase selectivity in THP-1 cell lysates)) EUB0000639a WNK2; format: subcellular; conditions: lysate
[4] = target: Protein arginine N-methyltransferase 3 (Homo sapiens, UniProt O60678); conditions: at 1 µM
[5] = test system: Mast/stem cell growth factor receptor Kit (Homo sapiens), P10721 [T670I]; assay: (§1) Selectivity interaction (Kinase panel (Z-LYTE Assay)) EUB0001632a KIT; conditions: at 10 µM
[6] = test system: Mast/stem cell growth factor receptor Kit (Homo sapiens), P10721 [V559D,V654A]; assay: as §1; conditions: at 10 µM
[7] = test system: Mast/stem cell growth factor receptor Kit (Homo sapiens), P10721 [V559D]; assay: as §1; conditions: at 10 µM
[8] = test system: Mast/stem cell growth factor receptor Kit (Homo sapiens), P10721 [V560G]; assay: as §1; conditions: at 10 µM
[9] = target: Mast/stem cell growth factor receptor Kit (Homo sapiens, UniProt P10721); assay: as §1; conditions: at 10 µM
[10] = target: Proto-oncogene tyrosine-protein kinase ROS (Homo sapiens) (UniProt P08922); assay: Selectivity interaction (KinomeScan (DiscoverX)) EUB0000595a ROS1; conditions: at 10 µM
[11] = target: Calcium/calmodulin-dependent protein kinase type II subunit delta (Homo sapiens) (UniProt Q13557); assay: Selectivity interaction (ProQinase) EUB0000171b CAMK2D
[12] = target: Serine/threonine-protein kinase pim-3 (Homo sapiens) (UniProt Q86V86); assay: Selectivity interaction (ProQinase) EUB0000171b PIM3
[13] = target: T2, Casein kinase I isoform alpha-like (Homo sapiens) (UniProt Q8N752); assay: Selectivity interaction (KinomeScan (DiscoverX)) EUB0000092b CSNK1A1L; conditions: at 10 µM
T2 sequence (whole entry): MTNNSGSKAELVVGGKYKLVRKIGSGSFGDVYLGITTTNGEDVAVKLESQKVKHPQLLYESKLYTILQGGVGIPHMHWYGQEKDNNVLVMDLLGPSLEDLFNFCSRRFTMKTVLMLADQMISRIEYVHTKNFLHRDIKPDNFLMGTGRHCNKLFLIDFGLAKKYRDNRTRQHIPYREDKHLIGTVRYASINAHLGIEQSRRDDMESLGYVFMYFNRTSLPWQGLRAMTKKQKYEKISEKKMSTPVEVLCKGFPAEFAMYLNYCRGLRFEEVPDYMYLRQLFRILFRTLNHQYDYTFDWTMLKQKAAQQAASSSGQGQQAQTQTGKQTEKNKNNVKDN

[14] = target: Serine/threonine-protein kinase PLK1 (Homo sapiens, UniProt P53350); assay: Selectivity interaction (KinomeScan (DiscoverX)) EUB0000092b PLK1; conditions: at 10 µM
[15] = target: SRSF protein kinase 2 (Homo sapiens) (UniProt P78362); assay: Selectivity interaction (KinomeScan (DiscoverX)) EUB0000092b SRPK2; conditions: at 10 µM
[16] = target: Wee1-like protein kinase (Homo sapiens) (UniProt P30291); assay: Selectivity interaction (KinomeScan (DiscoverX)) EUB0000618a WEE1; conditions: at 10 µM
[17] = target: Vascular endothelial growth factor receptor 1 (Homo sapiens) (UniProt P17948); assay: Selectivity interaction (Kinase panel (DSF assay)) EUB0001559a FLT1
[18] = test system: Tyrosine-protein kinase ABL1 (Homo sapiens), P00519 [H396P]; assay: Selectivity interaction (KinomeScan (DiscoverX)) EUB0000607a ABL1; conditions: at 10 µM
[19] = test system: Platelet-derived growth factor receptor alpha (Homo sapiens), P16234 [D842V]; assay: (§2) Selectivity interaction (SelectScreen profiling (Invitrogen)) EUB0000607a PDGFRA; conditions: at 2 µM
[20] = test system: Platelet-derived growth factor receptor alpha (Homo sapiens), P16234 [T674I]; assay: as §2; conditions: at 2 µM
[21] = test system: Platelet-derived growth factor receptor alpha (Homo sapiens), P16234 [V561D]; assay: as §2; conditions: at 2 µM
[22] = target: Platelet-derived growth factor receptor alpha (Homo sapiens, UniProt P16234); assay: as §2; conditions: at 2 µM
[23] = target: Mitogen-activated protein kinase kinase kinase kinase 4 (Homo sapiens, UniProt O95819); assay: Selectivity interaction (Kinase panel (KiNativ target engagement assay in Jurkat cells)) EUB0001635a MAP4K4; format: cell-based; conditions: Selectivity number of off-targets 0.0, Selectivity number of targets 233.0, Source Knowledge https://www.sciencedirect.com/science/article/pii/S2451945619300674?via%3Dihub, at 1 µM
[24] = target: Activin receptor type-2A (Homo sapiens) (UniProt P27037); assay: Selectivity interaction (KinomeScan (DiscoverX)) EUB0000666a ACVR2A; conditions: at 10 µM
[25] = target: Serine/threonine-protein kinase WNK1 (Homo sapiens) (UniProt Q9H4A3); assay: Selectivity interaction (Kinase panel (DSF assay)) EUB0001558a WNK1

Sequence of Serine/threonine-protein kinase WNK2 (Homo sapiens) (Q9Y3S1 whole entry): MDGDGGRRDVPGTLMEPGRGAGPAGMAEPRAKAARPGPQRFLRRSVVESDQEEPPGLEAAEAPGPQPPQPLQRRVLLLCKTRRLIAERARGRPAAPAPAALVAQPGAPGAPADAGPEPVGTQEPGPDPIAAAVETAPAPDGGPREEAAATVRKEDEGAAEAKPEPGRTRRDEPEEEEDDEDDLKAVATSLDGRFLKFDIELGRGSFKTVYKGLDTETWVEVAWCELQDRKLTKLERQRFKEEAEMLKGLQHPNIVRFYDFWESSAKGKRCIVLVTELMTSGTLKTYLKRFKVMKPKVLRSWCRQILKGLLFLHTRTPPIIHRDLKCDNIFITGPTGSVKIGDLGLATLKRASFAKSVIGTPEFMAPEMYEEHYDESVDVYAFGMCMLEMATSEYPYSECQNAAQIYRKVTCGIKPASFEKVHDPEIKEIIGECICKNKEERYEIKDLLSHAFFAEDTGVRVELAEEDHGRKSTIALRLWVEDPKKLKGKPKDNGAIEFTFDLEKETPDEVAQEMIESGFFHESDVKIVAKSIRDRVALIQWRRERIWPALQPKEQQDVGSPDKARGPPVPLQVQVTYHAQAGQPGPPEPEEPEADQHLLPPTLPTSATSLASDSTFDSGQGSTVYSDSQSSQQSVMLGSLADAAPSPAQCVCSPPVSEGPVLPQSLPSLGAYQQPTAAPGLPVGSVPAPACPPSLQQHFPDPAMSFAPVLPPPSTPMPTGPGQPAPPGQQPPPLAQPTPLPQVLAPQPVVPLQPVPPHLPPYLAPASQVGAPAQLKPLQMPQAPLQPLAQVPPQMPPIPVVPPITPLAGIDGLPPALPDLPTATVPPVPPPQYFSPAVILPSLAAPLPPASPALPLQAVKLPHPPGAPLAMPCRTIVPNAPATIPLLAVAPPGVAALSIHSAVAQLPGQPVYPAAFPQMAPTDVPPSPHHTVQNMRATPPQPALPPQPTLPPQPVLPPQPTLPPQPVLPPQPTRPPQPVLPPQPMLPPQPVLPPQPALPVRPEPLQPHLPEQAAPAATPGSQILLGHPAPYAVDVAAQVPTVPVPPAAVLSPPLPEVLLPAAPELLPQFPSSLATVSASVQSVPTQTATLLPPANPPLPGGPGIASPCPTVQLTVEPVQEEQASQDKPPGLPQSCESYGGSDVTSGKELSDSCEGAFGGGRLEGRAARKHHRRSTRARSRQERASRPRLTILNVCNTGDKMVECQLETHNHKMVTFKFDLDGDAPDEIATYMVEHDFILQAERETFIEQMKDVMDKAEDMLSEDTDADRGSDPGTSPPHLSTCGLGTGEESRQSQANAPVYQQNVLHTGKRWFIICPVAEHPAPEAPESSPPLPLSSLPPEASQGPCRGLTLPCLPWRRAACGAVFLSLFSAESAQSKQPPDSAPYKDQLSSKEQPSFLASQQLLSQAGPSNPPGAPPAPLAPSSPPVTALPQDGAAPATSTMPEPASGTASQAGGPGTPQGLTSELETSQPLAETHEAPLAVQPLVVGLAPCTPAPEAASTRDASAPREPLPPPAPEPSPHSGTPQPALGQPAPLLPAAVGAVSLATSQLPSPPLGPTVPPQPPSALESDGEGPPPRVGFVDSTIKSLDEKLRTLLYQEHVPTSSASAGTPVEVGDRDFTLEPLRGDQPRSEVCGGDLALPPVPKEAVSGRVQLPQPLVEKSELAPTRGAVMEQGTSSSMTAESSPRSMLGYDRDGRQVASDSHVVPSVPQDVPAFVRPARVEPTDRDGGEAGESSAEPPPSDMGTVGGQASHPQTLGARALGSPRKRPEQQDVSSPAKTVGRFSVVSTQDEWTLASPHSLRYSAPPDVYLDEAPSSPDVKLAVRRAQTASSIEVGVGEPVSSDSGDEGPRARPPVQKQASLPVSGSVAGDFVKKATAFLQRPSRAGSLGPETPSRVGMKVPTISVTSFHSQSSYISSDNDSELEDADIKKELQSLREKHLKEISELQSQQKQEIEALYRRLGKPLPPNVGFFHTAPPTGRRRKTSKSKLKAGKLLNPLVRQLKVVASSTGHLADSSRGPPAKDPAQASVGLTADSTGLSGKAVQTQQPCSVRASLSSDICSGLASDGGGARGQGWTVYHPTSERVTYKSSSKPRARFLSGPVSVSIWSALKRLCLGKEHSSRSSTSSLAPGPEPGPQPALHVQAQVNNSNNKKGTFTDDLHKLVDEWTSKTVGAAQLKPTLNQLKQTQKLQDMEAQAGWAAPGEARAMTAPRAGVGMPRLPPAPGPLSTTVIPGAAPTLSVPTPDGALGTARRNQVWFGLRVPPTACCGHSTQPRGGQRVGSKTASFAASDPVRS
Sequence of Calcium/calmodulin-dependent protein kinase type II subunit delta (Homo sapiens) (Q13557 whole entry): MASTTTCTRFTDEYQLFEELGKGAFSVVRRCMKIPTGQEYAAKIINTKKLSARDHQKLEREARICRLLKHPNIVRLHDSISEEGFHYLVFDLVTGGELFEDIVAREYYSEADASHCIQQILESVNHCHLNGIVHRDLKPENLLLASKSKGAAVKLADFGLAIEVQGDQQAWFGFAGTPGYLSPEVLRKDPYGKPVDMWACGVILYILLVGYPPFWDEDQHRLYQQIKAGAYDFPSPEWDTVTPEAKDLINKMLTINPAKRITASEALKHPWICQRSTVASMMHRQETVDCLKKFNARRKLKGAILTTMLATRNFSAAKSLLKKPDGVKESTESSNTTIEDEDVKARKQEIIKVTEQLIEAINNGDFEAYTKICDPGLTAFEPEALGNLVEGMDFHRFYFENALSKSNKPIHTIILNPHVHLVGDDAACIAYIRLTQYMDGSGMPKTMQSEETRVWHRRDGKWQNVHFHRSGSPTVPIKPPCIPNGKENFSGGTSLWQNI
Sequence of Platelet-derived growth factor receptor alpha (P16234 whole entry): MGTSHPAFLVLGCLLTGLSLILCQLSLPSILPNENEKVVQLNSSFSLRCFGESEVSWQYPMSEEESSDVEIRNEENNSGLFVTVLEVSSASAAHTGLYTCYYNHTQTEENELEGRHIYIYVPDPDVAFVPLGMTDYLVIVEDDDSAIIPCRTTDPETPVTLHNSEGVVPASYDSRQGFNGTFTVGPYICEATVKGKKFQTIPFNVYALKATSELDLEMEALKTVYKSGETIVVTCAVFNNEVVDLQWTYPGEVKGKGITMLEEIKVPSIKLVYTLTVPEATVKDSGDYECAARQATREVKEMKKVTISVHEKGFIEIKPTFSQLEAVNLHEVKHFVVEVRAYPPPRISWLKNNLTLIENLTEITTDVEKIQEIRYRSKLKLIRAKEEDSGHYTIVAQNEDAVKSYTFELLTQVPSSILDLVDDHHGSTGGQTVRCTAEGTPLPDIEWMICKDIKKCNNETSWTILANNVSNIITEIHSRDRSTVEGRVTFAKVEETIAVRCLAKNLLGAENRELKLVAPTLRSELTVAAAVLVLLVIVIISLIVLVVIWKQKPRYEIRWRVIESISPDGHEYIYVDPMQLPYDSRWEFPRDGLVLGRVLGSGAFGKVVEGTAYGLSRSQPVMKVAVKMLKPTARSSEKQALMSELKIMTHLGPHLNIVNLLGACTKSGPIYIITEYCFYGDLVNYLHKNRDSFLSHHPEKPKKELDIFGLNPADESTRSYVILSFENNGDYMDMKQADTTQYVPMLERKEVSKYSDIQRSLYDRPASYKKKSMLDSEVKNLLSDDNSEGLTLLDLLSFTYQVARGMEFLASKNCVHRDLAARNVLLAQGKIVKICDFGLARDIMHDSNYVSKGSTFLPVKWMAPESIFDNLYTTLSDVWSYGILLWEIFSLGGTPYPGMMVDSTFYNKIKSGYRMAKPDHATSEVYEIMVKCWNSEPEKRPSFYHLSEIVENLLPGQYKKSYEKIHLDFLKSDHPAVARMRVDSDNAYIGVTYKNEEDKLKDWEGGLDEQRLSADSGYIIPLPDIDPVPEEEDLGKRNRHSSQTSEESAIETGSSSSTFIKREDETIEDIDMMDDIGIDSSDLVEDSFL
Sequence of Platelet-derived growth factor receptor alpha (Homo sapiens), P16234 [D842V] (P16234 whole entry D842V): as the sequence (P16234 whole entry) above, with D842V counted along it
Sequence of Activin receptor type-2A (Homo sapiens) (P27037 whole entry): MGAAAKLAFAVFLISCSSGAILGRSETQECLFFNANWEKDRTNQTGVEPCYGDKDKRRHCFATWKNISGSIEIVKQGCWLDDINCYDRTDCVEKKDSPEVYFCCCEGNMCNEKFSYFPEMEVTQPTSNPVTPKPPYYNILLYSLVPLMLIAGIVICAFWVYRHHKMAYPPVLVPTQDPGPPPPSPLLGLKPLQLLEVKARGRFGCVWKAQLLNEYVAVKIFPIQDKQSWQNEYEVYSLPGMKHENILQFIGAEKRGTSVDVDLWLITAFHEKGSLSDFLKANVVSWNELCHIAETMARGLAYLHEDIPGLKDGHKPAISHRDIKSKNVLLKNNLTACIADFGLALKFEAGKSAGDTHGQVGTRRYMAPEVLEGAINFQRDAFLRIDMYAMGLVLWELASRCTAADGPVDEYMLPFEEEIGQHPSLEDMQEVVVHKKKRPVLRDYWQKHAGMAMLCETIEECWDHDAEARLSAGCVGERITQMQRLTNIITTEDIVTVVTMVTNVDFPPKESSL
Sequence of Platelet-derived growth factor receptor alpha (Homo sapiens), P16234 [V561D] (P16234 whole entry V561D): as the sequence (P16234 whole entry) above, with V561D counted along it
Sequence of Platelet-derived growth factor receptor alpha (Homo sapiens), P16234 [T674I] (P16234 whole entry T674I): as the sequence (P16234 whole entry) above, with T674I counted along it

SMILES: Cc1cc([C@@H](C)Nc2ccccc2C(=O)O)c2nc(N3CCOCC3)cc(=O)n2c1 [AZD-6482]
% of control [1]: 100%

% of inhibition ([2]; at 0.01 µM): 10.4%
% of inhibition ([2]; at 0.04 µM): 9.1%
% of inhibition ([2]; at 0.2 µM): 19.8%
% of inhibition ([2]; at 1 µM): 21.6%
% of inhibition ([2]; at 5 µM): 36.9%
% of inhibition ([3]; at 0.01 µM): 10.1%
% of inhibition ([3]; at 0.04 µM): 23.3%
% of inhibition ([3]; at 0.2 µM): 9.7%
% of inhibition ([3]; at 1 µM): 3.1%
% of inhibition ([3]; at 5 µM): 3%
SMILES: CC[C@@H]1[C@H](F)C(=O)N[C@@H]1COc1nccc2cc(C(N)=O)c(OC)cc12 [ZIMLOVISERTIB]

% activity [4]: > 90%
SMILES: CNCCN1CCC(c2cc(CN(C)C(=O)c3cccc(Oc4ccccc4)c3)ccn2)CC1

% of control [5]: 0.683%
% of control [6]: 0.874%
% of control [7]: 6.85%
% of control [8]: 1.94%
% of control [9]: 7.07%
SMILES: Cn1cc(-n2cnc3c(NCc4nc5cc(Cl)c(Cl)cc5[nH]4)nc(N4CCOCC4)nc32)cn1

SMILES: COCC(=O)NC/C=C/c1ccc2ncnc(Nc3ccc(Oc4ccc(C)nc4)c(C)c3)c2c1 [CP-724714]
% of control [10]: 100%

% of control ([11]; at 1 µM): 95%
% of control ([11]; at 5 µM): 92%
% of control ([12]; at 1 µM): 93%
% of control ([12]; at 5 µM): 82%
SMILES: C=CC(=O)Nc1cccc(C(=O)Nc2ccc(Nc3cc(-c4[nH]c(SC)nc4C)ccn3)cc2)c1

SMILES: CCC(=O)N1CCN(c2ccc(-n3c(=O)ccc4cnc5ccc(-c6cnc7ccccc7c6)cc5c43)cc2C(F)(F)F)CC1
% of control [13]: 81%
% of control [14]: 85%
% of control [15]: 100%

SMILES: O[C@H]1CC[C@H](Nc2ncc3nc(Nc4c(F)cc(F)cc4F)n([C@H]4CCOC4)c3n2)CC1
% of control [16]: 100%

dTM [17]: -0.1 K
SMILES: CN(C(=O)c1cnn2cccnc12)c1cc2c(cc1N1CCOCC1)C(=O)N(C[C@@H](F)C(C)(C)O)C2

SMILES: CNC(=O)Nc1ccc(-c2nc(N3CC4CCC(C3)O4)c3cnn(C4CCC5(CC4)OCCO5)c3n2)cc1
% of control [18]: 100%
% of inhibition [19]: 4%
% of inhibition [20]: 12%
% of inhibition [21]: 3%
% of inhibition [22]: 0%

SMILES: C=CC(=O)Nc1ccc(C(=O)Nc2[nH]nc3c2CN(C(=O)N[C@H](CN(C)C)c2ccccc2)C3(C)C)cc1
% of engagement [23]: -15.4%

SMILES: O=C(NOC[C@H](O)CO)c1ccc(F)c(F)c1Nc1ccc(I)cc1F
% of control [24]: 80%

SMILES: CC(C)(O)[C@H](F)CN1Cc2cc(NC(=O)c3cnn4cccnc34)c(N3CCOCC3)cc2C1=O
dTM [25]: -0.2 K

From ChEMBL document CHEMBL5465560, “Selectivity Literature for EUbOPEN Chemogenomic Library” (2024)
